Laboratory results published in the NIST ThermoML archive (doi:10.1021/je030177j).

Assay: mn = molality of the nth substance listed, in mol/kg
Conditions: Liquid, Capillary tube (Ostwald / Ubbelohde) method

O=S(=O)([O-])[O-].[Li+].[Li+] [lithium sulfate] + O
viscosity [mPa·s]
Conditions | 10000 kPa | 20000 kPa | 30000 kPa
415.76 K, m1 = 0.885 | – | – | 0.2944
417.42 K, m1 = 0.28 | 0.2175 | 0.2199 | 0.2227
418.18 K, m1 = 0.56 | 0.2443 | 0.2469 | 0.2497
420.67 K, m1 = 0.1 | 0.198 | 0.201 | 0.2031
423.55 K, m1 = 0.28 | 0.208 | 0.2106 | 0.2133
424.05 K, m1 = 0.885 | 0.2687 | 0.2721 | 0.2756
424.55 K, m1 = 0.56 | 0.233 | 0.2359 | 0.239
430.26 K, m1 = 0.885 | 0.2564 | 0.2601 | 0.264
430.73 K, m1 = 0.28 | 0.1975 | 0.1999 | 0.2024
431.72 K, m1 = 0.1 | 0.1829 | 0.1849 | 0.1871
431.83 K, m1 = 0.56 | 0.2212 | 0.2231 | 0.2251
437.24 K, m1 = 0.56 | 0.213 | 0.2154 | 0.2185
439.37 K, m1 = 0.885 | 0.2402 | 0.244 | 0.2479
440.04 K, m1 = 0.28 | 0.1858 | 0.1885 | 0.191
446.35 K, m1 = 0.56 | 0.2 | 0.203 | 0.206
449.15 K, m1 = 0.885 | 0.2248 | 0.2283 | 0.2318
449.35 K, m1 = 0.28 | 0.175 | 0.1776 | 0.1803
449.55 K, m1 = 0.1 | 0.163 | 0.1654 | 0.168
452.17 K, m1 = 0.56 | 0.1927 | 0.1957 | 0.1984
458.12 K, m1 = 0.885 | 0.2109 | 0.2139 | 0.2179
458.17 K, m1 = 0.28 | 0.1658 | 0.1682 | 0.1704
459.12 K, m1 = 0.56 | 0.1843 | 0.1878 | 0.19
459.89 K, m1 = 0.1 | 0.1532 | 0.1553 | 0.1577
462.13 K, m1 = 0.28 | 0.162 | 0.1649 | 0.1674
466.79 K, m1 = 0.885 | 0.2003 | 0.2038 | 0.2071
468.13 K, m1 = 0.56 | 0.175 | 0.1787 | 0.1813
468.74 K, m1 = 0.28 | 0.1558 | 0.1582 | 0.1612
468.97 K, m1 = 0.1 | 0.1454 | 0.1477 | 0.15
473.25 K, m1 = 0.1 | 0.1421 | 0.1467 | 0.149
475.55 K, m1 = 0.28 | 0.15 | 0.1528 | 0.1555
476.95 K, m1 = 0.885 | 0.1885 | 0.192 | 0.1956
479.55 K, m1 = 0.56 | 0.1637 | 0.1668 | 0.1699
482.35 K, m1 = 0.1 | 0.1352 | 0.1378 | 0.1404
485.13 K, m1 = 0.885 | 0.1797 | 0.1835 | 0.1871
485.17 K, m1 = 0.28 | 0.1424 | 0.1452 | 0.1475
490.35 K, m1 = 0.1 | 0.1297 | 0.1322 | 0.1354
490.76 K, m1 = 0.56 | 0.1538 | 0.1567 | 0.1595
492.49 K, m1 = 0.885 | 0.1725 | 0.1761 | 0.179
495.14 K, m1 = 0.28 | 0.1352 | 0.1377 | 0.14
500.43 K, m1 = 0.885 | 0.1653 | 0.1688 | 0.1722
501.3 K, m1 = 0.1 | 0.1228 | 0.125 | 0.1275
509.17 K, m1 = 0.885 | 0.158 | 0.1614 | 0.1649
510.12 K, m1 = 0.56 | 0.1391 | 0.142 | 0.1455
510.93 K, m1 = 0.1 | 0.1172 | 0.1199 | 0.1235
515.27 K, m1 = 0.28 | 0.1224 | 0.1247 | 0.1271
517.75 K, m1 = 0.885 | 0.1513 | 0.155 | 0.1586
521.75 K, m1 = 0.1 | 0.1115 | 0.1143 | 0.117
522.75 K, m1 = 0.56 | 0.1308 | 0.1341 | 0.1373
525.95 K, m1 = 0.28 | 0.1166 | 0.1196 | 0.1225
526.12 K, m1 = 0.885 | 0.1453 | 0.1491 | 0.1527
530.53 K, m1 = 0.1 | 0.1072 | 0.1097 | 0.1122
532.85 K, m1 = 0.56 | 0.125 | 0.1281 | 0.131
538.24 K, m1 = 0.885 | 0.1372 | 0.1408 | 0.1443
540.08 K, m1 = 0.28 | 0.1096 | 0.1125 | 0.1156
541.04 K, m1 = 0.1 | 0.1024 | 0.1052 | 0.1087
547.35 K, m1 = 0.1 | 0.0998 | 0.1027 | 0.1055
550.72 K, m1 = 0.885 | 0.1297 | 0.1335 | 0.1372
551.24 K, m1 = 0.56 | 0.1151 | 0.1184 | 0.1214
560.12 K, m1 = 0.28 | 0.1011 | 0.104 | 0.1075
560.18 K, m1 = 0.885 | 0.1246 | 0.1282 | 0.1318
560.43 K, m1 = 0.1 | 0.0948 | 0.0977 | 0.0999
560.72 K, m1 = 0.56 | 0.1106 | 0.1132 | 0.115
569.15 K, m1 = 0.1 | 0.0917 | 0.0945 | 0.0977
572.05 K, m1 = 0.56 | 0.1056 | 0.1092 | 0.1126
573.45 K, m1 = 0.28 | 0.0962 | 0.0995 | 0.1025
574.55 K, m1 = 0.885 | 0.1176 | 0.1217 | 0.1255
574.75 K, m1 = 0.1 | 0.0897 | 0.0928 | 0.0957
